Experimental data reported in publication PMC5266543 (ACS infectious diseases, 2016).
Converted amounts (≈) assume the structure as drawn. “Also recorded” adds a separate entry of the source. Like-named read-outs stand apart in the source and are kept apart here. Marks after values point to notes of the source that are not given here.

Key:
[1] = tested on: M. tuberculosis H37Rv; assay: microbe, parasite or virus in culture; format: cell-based, Mycobacterium tuberculosis; conditions: for MIC: Mycobacterium tuberculosis, H37RV, read-out: M. tuberculosis MIC
[2] = molecular target: T1, Mtb Dxr (Mycobacterium tuberculosis, UniProt P9WNS1); format: biochemical; conditions: for IC50: read-out: Mtb Dxr IC50
T1 sequence (P9WNS1 1-413): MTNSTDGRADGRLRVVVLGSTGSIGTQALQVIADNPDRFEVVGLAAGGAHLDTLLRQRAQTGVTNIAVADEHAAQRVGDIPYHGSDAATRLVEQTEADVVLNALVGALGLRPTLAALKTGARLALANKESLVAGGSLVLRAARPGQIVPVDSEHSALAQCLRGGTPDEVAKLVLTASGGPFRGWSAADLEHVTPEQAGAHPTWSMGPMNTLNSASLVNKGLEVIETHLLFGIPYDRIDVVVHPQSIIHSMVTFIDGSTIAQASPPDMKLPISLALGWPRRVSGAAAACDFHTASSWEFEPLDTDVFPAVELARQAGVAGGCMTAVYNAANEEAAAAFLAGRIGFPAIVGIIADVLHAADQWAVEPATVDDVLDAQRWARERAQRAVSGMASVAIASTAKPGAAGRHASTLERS

[3] = molecular target: Yp Dxr (Yersinia pestis, UniProt Q8ZH62); format: biochemical; conditions: for IC50: read-out: Yp Dxr IC50
[4] = tested on: Dxr; conditions: cited from earlier work
[5] = tested on: E. coli MG1655; format: cell-based, Escherichia coli
[6] = tested on: Yp; format: cell-based, Yersinia pestis

Sequence of Yp Dxr (Q8ZH62 whole entry, looked up): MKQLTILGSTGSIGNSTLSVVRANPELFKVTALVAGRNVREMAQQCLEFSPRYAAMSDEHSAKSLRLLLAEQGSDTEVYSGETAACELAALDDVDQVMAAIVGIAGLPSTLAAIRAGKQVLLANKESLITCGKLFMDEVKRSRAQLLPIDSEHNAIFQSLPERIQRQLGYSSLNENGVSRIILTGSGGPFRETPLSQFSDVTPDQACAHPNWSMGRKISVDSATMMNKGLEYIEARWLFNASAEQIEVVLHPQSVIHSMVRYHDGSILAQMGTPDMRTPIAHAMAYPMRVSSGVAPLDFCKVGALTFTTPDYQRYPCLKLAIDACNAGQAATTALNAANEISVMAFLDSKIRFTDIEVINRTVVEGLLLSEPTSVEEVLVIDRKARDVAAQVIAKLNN

| SMILES | M. tuberculosis MIC [1] | inhibition of Mtb Dxr (in words) [2] | percent remaining enzyme activity at 100 µM (Mtb Dxr) [2] | inhibition of Yp Dxr (in words) [3] | further results |
| --- | --- | --- | --- | --- | --- |
| CC(=O)N(CCCP(=O)(OCOC(=O)C(C)(C)C)OCOC(=O)C(C)(C)C)OCc1ccc(-c2ccccc2)cc1 [Compound 19, [({[(2,2-dimethylpropanoyl)oxy]methoxy}(3-{N-[(4-phenylphenyl)methoxy]acetamido}propyl)phosphoryl)oxy]methyl 2,2-dimethyl propanoate] | 12.5 (3.13–6.25) µg/mL |  |  |  |  |
| CC(=O)N(CCCP(=O)([O-])O)OCc1cccc2ccccc12.[Na+] [Compound 16i, Sodium Hydrogen 3-(N-(naphthalen-1-ylmethoxy)acetamido)propyl phosphonate] |  | greatest inhibition | (29) percent | most active | selectivity between Dxr homologs (Yp versus Mtb) [3]: more potent against Yp Dxr; IC50 [3]: 22.4 µM |
| CC(=O)N(CCCP(=O)([O-])O)OCc1ccc(C(C)C)cc1.[Na+] [Compound 16d, Sodium Hydrogen 3-(N-((4-isopropylbenzyl)oxy)acetamido)propyl phosphonate] | 200 (25) µg/mL | potent inhibitors; also recorded: greatest inhibition |  | potent inhibitors; also recorded: most active | IC50 [2]: 48.4 µM; selectivity between Dxr homologs (Yp versus Mtb) [3]: more potent against Yp Dxr; IC50 [3]: 1.19 µM |
| O=C(N(O)CCCP(=O)([O-])O)N(c1ccccc1)c1ccccc1.[Na+] [Compound 8n, Sodium hydrogen-3-(1-hydroxy-3,3-diphenylureido)propyl phosphonate] |  | ineffective |  | ineffective |  |
| CCCCC(=O)N(O)CCCP(=O)([O-])O.[Na+] [Compound 8a, Sodium hydrogen-3-(N-hydroxypentanamido)propyl phosphonate] |  | greatest inhibition |  |  |  |
| CC(=O)N(O)CCCP(=O)(O)O [Compound 2, FR900098] | >500 µg/mL |  |  |  | mechanism of inhibition [4]: competitive inhibitors with respect to DXP and uncompetitive relative to NADPH; growth inhibition activity (in words) [5]: potently inhibits bacterial propagation in a dose-dependent manner; IC50 [2]: 2.91 µM; growth inhibition activity (in words) [6]: potently inhibits bacterial propagation in a dose-dependent manner; IC50 [3]: 0.23 µM |
| CC(=O)N(CCCP(=O)(OCOC(=O)C(C)(C)C)OCOC(=O)C(C)(C)C)OCc1ccc2ccccc2c1 [Compound 20, [({[(2,2-dimethylpropanoyl)oxy]methoxy}({3-[N-(naphthalen-2-ylmethoxy)acetamido]propyl})phosphoryl)oxy]methyl 2,2-dimethylpropanoate] | 18.75 (4.7) µg/mL |  |  |  |  |
| CC(=O)N(CCCP(=O)([O-])O)OC(C)c1ccccc1.[Na+] (stereo not shown) [Compound 16e, Sodium Hydrogen 3-(N-(1-phenylethoxy)acetamido)propyl phosphonate] |  | greatest inhibition | (38.1) percent | most active | percent remaining enzyme activity at 100 µM (Yp Dxr) [3]: (19) percent |
| CC(=O)N(CCCP(=O)(OCOC(=O)C(C)(C)C)OCOC(=O)C(C)(C)C)OCc1ccc(C(C)C)cc1 [Compound 17, [({[(2,2-dimethylpropanoyl)oxy]methoxy}[3-(N-{[4-(propan-2-yl)phenyl]methoxy}acetamido)propyl]phosphoryl)oxy]methyl 2,2-dimethyl propanoate] | 12.5 (6.25–12.5) µg/mL |  |  |  |  |
| CCCCCCC(=O)N(O)CCCP(=O)([O-])O.[Na+] [Compound 8b, Sodium hydrogen-3-(N-hydroxyheptanamido)propyl phosphonate] |  | inhibited; also recorded: greatest inhibition | (43) ^* percent | inhibited; also recorded: most active | percent remaining enzyme activity at 100 µM (Yp Dxr) [3]: (27) percent |
| CC(=O)N(CCCP(=O)([O-])O)OCc1ccc(-c2ccc(C(C)C)cc2)cc1.[Na+] [Compound 16p, Sodium Hydrogen 3-(N-((4'-isopropyl-[1,1'-biphenyl]-4-yl)methoxy)acetamido)propyl phosphonate] | 100 (6.25–12.5) µg/mL |  |  |  |  |
| O=C(CCCc1ccccc1)N(O)CCCP(=O)([O-])O.[Na+] [Compound 8h, Sodium hydrogen-3-(N-hydroxy-4-phenylbutanamido)propyl phosphonate] | >200 µg/mL | greatest inhibition |  | most active | binding modality [4]: competitively with DXP but noncompetitively with NADPH; IC50 [2]: 17.8 µM; percent remaining enzyme activity at 100 µM (Yp Dxr) [3]: (34) percent |
| CC(=O)N(CCCP(=O)([O-])O)OCc1ccc2ccccc2c1.[Na+] [Compound 16j, Sodium Hydrogen 3-(N-(naphthalen-2-ylmethoxy)acetamido)propyl phosphonate] | ≥200 µg/mL | potent inhibitors; also recorded: greatest inhibition |  | potent inhibitors; also recorded: most active | inhibitor modality (Lineweaver-Burk) [2]: competitive with both NADPH and DXP; Ki ([2]; read-out: Ki relative to NADPH): 17.8 µM; Ki ([2]; read-out: Ki with respect to DXP): 1 µM; IC50 [2]: 1.45 µM; IC50 [3]: 0.33 µM |
| Cc1ccc(C(=O)N(O)CCCP(=O)([O-])O)cc1.[Na+] [Compound 8f, Sodium hydrogen-3-(N-hydroxy-4-methylbenzamido)propyl phosphonate] |  |  | (74) percent | most active | selectivity between Dxr homologs (Yp versus Mtb) [3]: significantly more potent against Yp Dxr; IC50 [3]: 16 µM |
| O=CN(O)CCCP(=O)(O)O [Compound 1, fosmidomycin, reference compound] |  |  |  |  | mechanism of inhibition [4]: competitive inhibitors with respect to DXP and uncompetitive relative to NADPH; MIC [1]: > 500 µg/mL |
| O=C(c1ccccc1)N(O)CCCP(=O)([O-])O.[Na+] [Compound 8e, Sodium hydrogen-3-(N-hydroxybenzamido)propyl phosphonate] | ≥200 µg/mL |  | (70) percent | most active | inhibitor modality (Lineweaver-Burk) [3]: competitive with both NADPH and DXP; selectivity between Dxr homologs (Yp versus Mtb) [3]: significantly more potent against Yp Dxr; Ki ([3]; read-out: Ki relative to DXP): 7.9 µM; Ki ([3]; read-out: Ki with respect to NADPH): 1.8 µM; IC50 [3]: 4.45 µM |
| CC(=O)N(CCCP(=O)([O-])O)OCc1ccc(-c2ccc(C(F)(F)F)cc2)cc1.[Na+] [Compound 16r, Sodium Hydrogen 3-(N-((4'-(trifluoromethyl)-[1,1'-biphenyl]-4-yl)methoxy)acetamido)propyl phosphonate] |  |  | (70) percent | most active | percent remaining enzyme activity at 100 µM (Yp Dxr) [3]: (19) percent |
| O=C(COc1ccc(Cl)cc1)N(O)CCCP(=O)([O-])O.[Na+] [Compound 8l, Sodium hydrogen-3-(2-(4-chlorophenoxy)-N-hydroxyacetamido)propyl phosphonate] | >200 (25) µg/mL |  |  |  |  |
| CC(=O)N(CCCP(=O)([O-])O)OCCCCc1ccccc1.[Na+] [Compound 16h, Sodium Hydrogen 3-(N-(4-phenylbutoxy)acetamido)propyl phosphonate] | ≥200 µg/mL |  |  |  |  |
| CC(=O)N(CCCP(=O)(OCOC(=O)C(C)(C)C)OCOC(=O)C(C)(C)C)OCCCCc1ccccc1 [Compound 18, [({[(2,2-dimethylpropanoyl)oxy]methoxy}({3-[N-(4-phenylbutoxy)acetamido]propyl})phosphoryl)oxy]methyl 2,2-dimethylpropanoate] |  |  |  |  | MIC [1]: 12.5 µg/mL (≈ 22.4 µM) |
| NNC(=O)c1ccncc1 [INH, reference compound] | 0.01 µg/mL |  |  |  |  |
| CC(=O)N(CCCP(=O)(OCOC(=O)c1ccccc1)OCOC(=O)c1ccccc1)OCCCCc1ccccc1 [Compound 21, [({[(benzoyl)oxy]methoxy}({3-[N-(4-phenylbutoxy)acetamido]propyl})phosphoryl)oxy]methyl benzoate] |  |  |  |  | MIC [1]: 25 µg/mL (≈ 41.8 µM) |
| CC(=O)N(CCCP(=O)([O-])O)OCCc1ccc(O)cc1.[Na+] [Compound 16g, Sodium Hydrogen 3-(N-(4-hydroxyphenethoxy)acetamido)propyl phosphonate] |  |  | (59) percent | most active | percent remaining enzyme activity at 100 µM (Yp Dxr) [3]: (22) percent; selectivity between Dxr homologs (Yp versus Mtb) [3]: same trend |
| CC(=O)N(CCCP(=O)([O-])O)OCc1ccc(-c2ccccc2)cc1.[Na+] [Compound 16k, Sodium Hydrogen 3-(N-([1,1'-biphenyl]-4-ylmethoxy)acetamido)propyl phosphonate] | 25 to 50 µg/mL | potent inhibitors; also recorded: greatest inhibition | (36.8) percent | potent inhibitors; also recorded: most active | selectivity between Dxr homologs (Yp versus Mtb) [3]: more potent against Yp Dxr; IC50 [3]: 8.4 µM |
| O=C(CCC1CCCCC1)N(O)CCCP(=O)([O-])O.[Na+] [Compound 8d, Sodium hydrogen-3-(3-cyclohexyl-N-hydroxypropanamido)propyl phosphonate] | >200 (25) µg/mL |  |  |  |  |
